From ChEMBL document CHEMBL3779866, “Synthetic approaches, structure activity relationship and biological applications for pharmacologically attractive pyrazole/pyrazoline-thiazolidine-based hybrids” (Eur J Med Chem, 2016)
≈ marks a conversion by molar mass, not a printed value.

Key:
[1] = test system: Leishmania donovani; test: Antiparasitic activity against Leishmania donovani by cell based assay; assay type: functional, organism-based
[2] = test system: Plasmodium falciparum; test: Antiparasitic activity against Plasmodium falciparum by cell based assay; assay type: functional, organism-based
[3] = test system: Candida albicans; test: Antimicrobial activity against Candida albicans ATCC 10231 by serial two-fold broth dilution method; assay type: functional
[4] = test system: Aspergillus fumigatus; test: Antimicrobial activity against Aspergillus fumigatus HIC6094 by serial two-fold broth dilution method; assay type: functional
[5] = test system: Trichophyton rubrum; test: Antimicrobial activity against Trichophyton rubrum IFO9185 by serial two-fold broth dilution method; assay type: functional
[6] = test system: Trichophyton mentagrophytes; test: Antimicrobial activity against Trichophyton mentagrophytes IFO40996 by serial two-fold broth dilution method; assay type: functional
[7] = test system: Escherichia coli; test: Antibacterial activity against Escherichia coli ATCC 25922 after 24 to 48 hrs by two-fold microdilution susceptibility assay; assay type: functional
[8] = test system: HeLa; test: Cytotoxicity against human HeLa cells assessed as growth inhibition after 48 hrs by SRB assay; assay type: functional
[9] = test system: CCRF-CEM; test: Cytotoxicity against human CCRF-CEM cells assessed as growth inhibition after 48 hrs by SRB assay; assay type: functional
[10] = Cytotoxicity against human RPMI8226 cells assessed as growth inhibition after 48 hrs by SRB assay; assay type: functional; conditions: RPMI-8226, 48 h
[11] = test system: EKVX; test: Cytotoxicity against human EKVX cells assessed as growth inhibition after 48 hrs by SRB assay; assay type: functional
[12] = test system: NCI-H522; test: Cytotoxicity against human NCI-H522 cells assessed as growth inhibition after 48 hrs by SRB assay; assay type: functional; conditions: NCI-H522, 48 h
[13] = Cytotoxicity against human HOP92 cells assessed as growth inhibition after 48 hrs by SRB assay; assay type: functional; conditions: HOP-92, 48 h
[14] = test system: Candida albicans; test: Antifungal activity against Candida albicans after 24 to 48 hrs by two-fold microdilution susceptibility assay; assay type: functional
[15] = test system: Escherichia coli; test: Antimicrobial activity against Escherichia coli after 24 hrs by serial dilution method; assay type: functional
[16] = test system: HepG2; test: Cytotoxicity against human HepG2 cells assessed as growth inhibition after 48 hrs by SRB assay; assay type: functional; conditions: HepG2, 48 h
[17] = test system: Rattus norvegicus; test: Antiinflammatory activity against albino rat assessed as inhibition of carrageenin induced paw edema at 100 mg/kg, po administered for 1 hr followed by carrageenin challenge measured after 4 hrs; assay type: functional
[18] = test system: Bacillus subtilis; test: Antimicrobial activity against Bacillus subtilis MTCC 441 after 24 hrs by serial two-fold broth dilution method; assay type: functional; conditions: MTCC 441, 24 h
[19] = test system: Lysinibacillus sphaericus; test: Antimicrobial activity against Bacillus sphaericus MTCC 11 after 24 hrs by serial two-fold broth dilution method; assay type: functional; conditions: MTCC 11, 24 h
[20] = test system: Staphylococcus aureus; test: Antimicrobial activity against Staphylococcus aureus MTCC 96 after 24 hrs by serial two-fold broth dilution method; assay type: functional; conditions: MTCC 96, 24 h
[21] = test system: Pseudomonas aeruginosa; test: Antimicrobial activity against Pseudomonas aeruginosa MTCC 741 after 24 hrs by serial two-fold broth dilution method; assay type: functional; conditions: MTCC 741, 24 h
[22] = test system: Klebsiella aerogenes; test: Antimicrobial activity against Klebsiella aerogenes MTCC 39 after 24 hrs by serial two-fold broth dilution method; assay type: functional; conditions: MTCC 39, 24 h
[23] = test system: Chromobacterium violaceum; test: Antimicrobial activity against Chromobacterium violaceum MTCC 2625 after 24 hrs by serial two-fold broth dilution method; assay type: functional; conditions: MTCC 2625, 24 h

Q: With CC1=NN(C2=NC(=O)CS2)C(c2ccccc2)C1 (centres undefined) as the molecule, how does the IC50 [1] read?
A: > 30 µg/mL

Q: And the IC50 [2]?
A: > 5 µg/mL

Q: Which MIC [3] does the source give for Cc1nn(-c2ccccc2)c(C)c1-c1cc(-c2ccc(Cl)cc2)nc(N2C(=O)CSC2c2ccc(N(C)C)cc2)n1 (centres undefined) here?
A: 14 µg/mL (≈ 24.1 µM)

Q: And the MIC [4]?
A: 14 µg/mL (≈ 24.1 µM)

Q: And the MIC [5]?
A: 14 µg/mL (≈ 24.1 µM)

Q: What about the MIC [6] of the same molecule?
A: 14 µg/mL (≈ 24.1 µM)

Q: For Cc1ccc(N2C(=O)CS/C2=N/N=C\c2cn(-c3ccccc3)nc2-c2ccc(Br)s2)cc1, which MIC [7] is on record?
A: 25 µg/mL (≈ 46.6 µM)

Q: With Cc1nn(-c2ccccc2)c(C)c1-c1cc(-c2ccc(Cl)cc2)nc(N2C(=O)CSC2c2ccco2)n1 (centres undefined) as the molecule, how does the MIC [3] read?
A: 14 µg/mL (≈ 26.5 µM)

Q: And the MIC [4]?
A: 14 µg/mL (≈ 26.5 µM)

Q: And the MIC [5]?
A: 14 µg/mL (≈ 26.5 µM)

Q: And the MIC [6]?
A: 14 µg/mL (≈ 26.5 µM)

Q: For Cc1ccc(N2C(=O)CSC2c2cn(-c3ccccc3)nc2-c2cc3ccccc3o2)cc1 (centres undefined), which GI50 [8] is on record?
A: 1.2 µg/mL (≈ 2.66 µM)

Q: With O=C1NC(=S)S/C1=C\c1cn(-c2ccccc2)nc1-c1ccccc1 as the molecule, how does the GI50 [9] read?
A: 2500 nM

Q: What about the GI50 [10] of the same molecule?
A: 2520 nM

Q: What about the GI50 [11] of the same molecule?
A: 3030 nM

Q: What about the GI50 [12] of the same molecule?
A: 2960 nM

Q: And the GI50 [13]?
A: 620 nM

Q: What about the CC50 ([13]; read-out: LC50 (the source's name)) of the same molecule?
A: > 100000 nM

Q: With O=C1CS/C(=N/N=C\c2cn(-c3ccccc3)nc2-c2ccc(Br)s2)N1c1ccc(Cl)cc1 as the molecule, how does the MIC [14] read?
A: 12.5 µg/mL (≈ 22.4 µM)

Q: Which MIC [15] does the source give for CC(=O)OC[C@@H]1O[C@@H](N2C(=O)/C(=C/c3cn(-c4ccccc4)nc3-c3ccc(Br)cc3)SC2=S)[C@@H](OC(C)=O)[C@H](OC(C)=O)[C@@H]1OC(C)=O here?
A: 143 µg/mL (≈ 185 µM)

Q: With C(=N\Nc1nc(-c2ccc3c(c2)CCCC3)cs1)/c1cn(-c2ccccc2)nc1-c1cc2ccccc2o1 as the molecule, how does the GI50 [16] read?
A: 5 µg/mL (≈ 9.7 µM)

Q: With CC(C(=O)O)c1cccc(C(=O)c2ccccc2)c1 (centres undefined) [KETOPROFEN] as the molecule, how does the inhibition in vivo at 100 mg/kg [17] read?
A: 63%

Q: Which MIC [18] does the source give for CC1(C)S[C@@H]2[C@H](NC(=O)Cc3ccccc3)C(=O)N2[C@H]1C(=O)O [PENICILLIN G] here?
A: 1.56 µg/mL (≈ 4.67 µM)

Q: What about the MIC [19] of the same molecule?
A: 1.56 µg/mL (≈ 4.67 µM)

Q: And the MIC [20]?
A: 1.56 µg/mL (≈ 4.67 µM)

Q: And the MIC [21]?
A: 1.56 µg/mL (≈ 4.67 µM)

Q: What about the MIC [22] of the same molecule?
A: 1.56 µg/mL (≈ 4.67 µM)

Q: And the MIC [23]?
A: 1.56 µg/mL (≈ 4.67 µM)

Q: For CN(C)[C@@H]1C(O)=C(C(N)=O)C(=O)[C@@]2(O)C(O)=C3C(=O)c4c(O)cccc4[C@@](C)(O)[C@H]3C[C@@H]12 [TETRACYCLINE], which MIC [15] is on record?
A: 39 µg/mL (≈ 87.8 µM)
